According to ChEMBL document CHEMBL1201862, “PubChem BioAssay data set” (2004):
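Dose response: 5 concentrations. Exposure: 48 h. Format: 96-well plates. Endpoint: linear interpolation; highest concentration if not reached. GI50 marks 50% less growth.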 Calls of active or inactive are those of the source. No stated cut-off is given here; in the data, active = GI50 up to about 1.1 µM and inactive = higher.

Key:
Test in all cases: inhibition of tumour cell growth, NCI panel, 48 h
HL-60 = test system: HL-60
EKVX = test system: EKVX
SR = test system: SR
K562 = test system: K562
SNB-19 = test system: SNB-19
OVCAR-5 = test system: OVCAR-5
OVCAR-4 = test system: OVCAR-4
SNB-75 = test system: SNB-75
MOLT-4 = test system: MOLT-4
OVCAR-8 = test system: OVCAR-8
SF-539 = test system: SF-539
NCI/ADR-RES = test system: NCI/ADR-RES
NCI-H460 = test system: NCI-H460
A498 = test system: A498
CCRF-CEM = test system: CCRF-CEM
HT-29 = test system: HT-29
A549 = test system: A549
SK-MEL-28 = test system: SK-MEL-28
SK-OV-3 = test system: SK-OV-3
RXF 393 = test system: RXF 393

| Structure (SMILES) | GI50 (HL-60) | GI50 (EKVX) | GI50 (SR) | GI50 (K562) | GI50 (SNB-19) | GI50 (OVCAR-5) | GI50 (OVCAR-4) | GI50 (SNB-75) | GI50 (MOLT-4) | GI50 (OVCAR-8) | GI50 (SF-539) | GI50 (NCI/ADR-RES) | GI50 (NCI-H460) | GI50 (A498) | GI50 (CCRF-CEM) | GI50 (HT-29) | GI50 (A549) | GI50 (SK-MEL-28) | GI50 (SK-OV-3) | GI50 (RXF 393) |
| --- | --- | --- | --- | --- | --- | --- | --- | --- | --- | --- | --- | --- | --- | --- | --- | --- | --- | --- | --- | --- |
| O=C1N2CCN=C2c2ccccc2C1(O)c1ccccc1 (stereo not given) | > 100 µM (inactive) | > 100 µM (inactive) | > 100 µM (inactive) | > 100 µM (inactive) | > 100 µM (inactive) | > 100 µM (inactive) | > 100 µM (inactive) | > 100 µM (inactive) | > 100 µM (inactive) | > 100 µM (inactive) | > 100 µM (inactive) | > 100 µM (inactive) | > 100 µM (inactive) | > 100 µM (inactive) | > 100 µM (inactive) | > 100 µM (inactive) | > 100 µM (inactive) | > 100 µM (inactive) | – | – |
| O=C1CSC(c2ccccc2)N1c1ccc(-c2ccc(-n3c(-c4ccccc4)nc4ccccc4c3=O)cc2)cc1 (stereo not given) | 27.4 µM (inactive) | 55.3 µM (inactive) | 19.5 µM (inactive) | 33.3 µM (inactive) | 82.8 µM (inactive) | > 100 µM (inactive) | 30.5 µM (inactive) | – | 19.6 µM (inactive) | 44.4 µM (inactive) | – | 43.5 µM (inactive) | 46 µM (inactive) | > 100 µM (inactive) | 37.2 µM (inactive) | 46.1 µM (inactive) | 41.7 µM (inactive) | > 100 µM (inactive) | > 100 µM (inactive) | – |
| C[C@H](CSC(=O)c1ccccc1)C(=O)N1c2ccccc2C[C@H]1C(=O)O | 33.7 µM (inactive) | > 100 µM (inactive) | 61.1 µM (inactive) | 17.5 µM (inactive) | > 100 µM (inactive) | > 100 µM (inactive) | > 100 µM (inactive) | 35.3 µM (inactive) | 75.7 µM (inactive) | > 100 µM (inactive) | > 100 µM (inactive) | 50.6 µM (inactive) | > 10 µM (inactive) | > 100 µM (inactive) | 32.1 µM (inactive) | 47.2 µM (inactive) | > 100 µM (inactive) | > 100 µM (inactive) | > 100 µM (inactive) | – |
| C[N+](C)(C)CC(=O)N/N=C(/CC(=O)CC(C1=C(O)c2ccccc2OC1)c1ccccc1)C(=O)Nc1cccc(Cl)c1 (stereo not given) | > 100 µM (inactive) | > 100 µM (inactive) | > 100 µM (inactive) | > 100 µM (inactive) | – | > 100 µM (inactive) | > 100 µM (inactive) | > 100 µM (inactive) | > 100 µM (inactive) | > 100 µM (inactive) | > 100 µM (inactive) | > 100 µM (inactive) | > 10 µM (inactive) | > 100 µM (inactive) | > 100 µM (inactive) | > 100 µM (inactive) | > 100 µM (inactive) | > 100 µM (inactive) | > 100 µM (inactive) | > 100 µM (inactive) |
| COc1ccc(N2C(=O)C3c4[nH]c5ccc(OCc6ccccc6)cc5c4C4CCC(C(C)(C)C)CC4C3C2=O)cc1 (stereo not given) | > 100 µM (inactive) | > 100 µM (inactive) | > 100 µM (inactive) | > 100 µM (inactive) | > 100 µM (inactive) | > 100 µM (inactive) | 29.8 µM (inactive) | – | > 100 µM (inactive) | 46.3 µM (inactive) | 46 µM (inactive) | 63.5 µM (inactive) | > 100 µM (inactive) | > 100 µM (inactive) | – | > 100 µM (inactive) | > 100 µM (inactive) | 65.6 µM (inactive) | > 100 µM (inactive) | > 100 µM (inactive) |
| N#Cc1c(N2CCOCC2)ncn(-c2ccccc2)c1=O | 3.08 µM (inactive) | > 100 µM (inactive) | > 100 µM (inactive) | > 100 µM (inactive) | > 100 µM (inactive) | > 100 µM (inactive) | – | > 100 µM (inactive) | > 100 µM (inactive) | > 100 µM (inactive) | > 100 µM (inactive) | > 100 µM (inactive) | > 100 µM (inactive) | > 100 µM (inactive) | > 100 µM (inactive) | – | > 100 µM (inactive) | > 100 µM (inactive) | > 100 µM (inactive) | – |
| CCOC(=O)CCC(C(=O)OCC)n1nc2ccc(Nc3c(C)[n+]([O-])c4ccc(Cl)cc4[n+]3[O-])cc2n1 (stereo not given) | 38.2 µM (inactive) | 17.5 µM (inactive) | 34.1 µM (inactive) | 41.4 µM (inactive) | 30.1 µM (inactive) | 30.9 µM (inactive) | 28.8 µM (inactive) | – | 27.9 µM (inactive) | 21.5 µM (inactive) | 20.7 µM (inactive) | 18.8 µM (inactive) | 17 µM (inactive) | 23.6 µM (inactive) | 41.2 µM (inactive) | 30.9 µM (inactive) | 17.6 µM (inactive) | – | 21.2 µM (inactive) | 13 µM (inactive) |
| OC1(c2ccccc2)CSc2ncnn21 (stereo not given) | > 100 µM (inactive) | > 100 µM (inactive) | > 100 µM (inactive) | > 100 µM (inactive) | > 100 µM (inactive) | – | > 100 µM (inactive) | > 100 µM (inactive) | > 100 µM (inactive) | > 100 µM (inactive) | > 100 µM (inactive) | > 100 µM (inactive) | > 100 µM (inactive) | > 100 µM (inactive) | > 100 µM (inactive) | > 100 µM (inactive) | > 100 µM (inactive) | – | > 100 µM (inactive) | > 100 µM (inactive) |
| Sc1nn2c(COc3cc(Cl)c(OCc4nnc5sc(S)nn45)cc3Cl)nnc2s1 | 37.8 µM (inactive) | 5.51 µM (inactive) | 30.1 µM (inactive) | 33.7 µM (inactive) | > 100 µM (inactive) | > 100 µM (inactive) | 51.8 µM (inactive) | 82 µM (inactive) | 31.3 µM (inactive) | 88.5 µM (inactive) | 87.5 µM (inactive) | > 100 µM (inactive) | > 100 µM (inactive) | > 100 µM (inactive) | – | 43.3 µM (inactive) | > 100 µM (inactive) | 31.3 µM (inactive) | > 100 µM (inactive) | 39.2 µM (inactive) |
| C(=C/c1nnnn1-c1ccccc1)/Nc1ccccc1 | 41.2 µM (inactive) | 40.6 µM (inactive) | > 10 µM (inactive) | 20.7 µM (inactive) | 26.7 µM (inactive) | 24.8 µM (inactive) | – | 27.5 µM (inactive) | 21.7 µM (inactive) | 29.5 µM (inactive) | 23.3 µM (inactive) | 24.6 µM (inactive) | 49.8 µM (inactive) | > 100 µM (inactive) | 25.5 µM (inactive) | 28.2 µM (inactive) | 52.4 µM (inactive) | 78.7 µM (inactive) | 36.2 µM (inactive) | 53 µM (inactive) |
| c1cc(-c2ccc(-c3ccsc3)s2)cs1 | 19.2 µM (inactive) | 85.5 µM (inactive) | 28.2 µM (inactive) | > 100 µM (inactive) | – | > 100 µM (inactive) | 18.1 µM (inactive) | 23.9 µM (inactive) | 70.6 µM (inactive) | 48.8 µM (inactive) | 36.4 µM (inactive) | 30.4 µM (inactive) | > 100 µM (inactive) | 46.6 µM (inactive) | 12.9 µM (inactive) | 39.5 µM (inactive) | 22.4 µM (inactive) | – | > 100 µM (inactive) | 73.1 µM (inactive) |
| CC1=C(C(=O)OCCO[N+](=O)[O-])C(c2ccccc2[N+](=O)[O-])C(C(=O)OC(C)C)=C(C)N1 (stereo not given) | 39.3 µM (inactive) | 18.3 µM (inactive) | 44.9 µM (inactive) | 49.1 µM (inactive) | 18 µM (inactive) | 14.9 µM (inactive) | 18 µM (inactive) | – | 40.9 µM (inactive) | 22.5 µM (inactive) | 17.7 µM (inactive) | 16.8 µM (inactive) | 15.5 µM (inactive) | 20.7 µM (inactive) | 33.2 µM (inactive) | 15.7 µM (inactive) | 16.3 µM (inactive) | 16.5 µM (inactive) | 21.2 µM (inactive) | 14.3 µM (inactive) |
| CCOC(=O)c1cc(C)nc2c1c(=O)n(-c1ccccc1)c(=O)n2CCCCN1CCN(c2ncccn2)CC1 | 25.4 µM (inactive) | > 100 µM (inactive) | 29.9 µM (inactive) | 39.1 µM (inactive) | – | > 100 µM (inactive) | – | 59 µM (inactive) | 11.3 µM (inactive) | > 100 µM (inactive) | – | > 100 µM (inactive) | – | 20.8 µM (inactive) | 31.8 µM (inactive) | > 100 µM (inactive) | > 100 µM (inactive) | > 100 µM (inactive) | > 100 µM (inactive) | > 100 µM (inactive) |
| C[C@]12CC[C@H](O)CC1=CC[C@@H]1[C@@H]2CC[C@]2(C)/C(=N/OCCN3CCCC3)CC[C@@H]12 | 7.74 µM (inactive) | 10.8 µM (inactive) | 14.8 µM (inactive) | 4.36 µM (inactive) | 23.4 µM (inactive) | 28.2 µM (inactive) | 16.4 µM (inactive) | 19.3 µM (inactive) | 14.1 µM (inactive) | 16.3 µM (inactive) | 14.6 µM (inactive) | 18.2 µM (inactive) | 12 µM (inactive) | 16 µM (inactive) | – | 2.7 µM (inactive) | – | 16.5 µM (inactive) | – | 15.1 µM (inactive) |
| COC1=C2C=[N+](C)C3C(=C2C=CC1OC)Cc1cc2c(cc13)OCO2 (stereo not given) | 4.61 µM (inactive) | 17.9 µM (inactive) | 0.879 µM (active) | 6.93 µM (inactive) | 5.28 µM (inactive) | 18.2 µM (inactive) | 10.5 µM (inactive) | 14.8 µM (inactive) | 3.77 µM (inactive) | 22 µM (inactive) | 11.8 µM (inactive) | 29.9 µM (inactive) | – | 43.5 µM (inactive) | 6.37 µM (inactive) | 13.5 µM (inactive) | 15.8 µM (inactive) | 15.1 µM (inactive) | 15.1 µM (inactive) | – |
